Measurements taken from ChEMBL document CHEMBL3352097, “Small molecule inhibitors targeting activator protein 1 (AP-1)” (J Med Chem, 2014).
Values belong to the molecule of their own block, whether it stands above or below them.

Tests used:
Transcription factor Jun [1] = molecular target: T1, Transcription factor Jun (Homo sapiens, UniProt P05412); assay: Inhibition of AP-1-mediated transcriptional activation in human Jurkat cells by luciferase reporter gene assay; type: cell-based
[2] = molecular target: Nuclear factor NF-kappa-B complex (Homo sapiens, UniProt Q00653+P19838+Q04206); assay: Inhibition of NF-kappaB-mediated transcriptional activation in human Jurkat cells by luciferase reporter gene assay; type: cell-based
Chain of Nuclear factor NF-kappa-B complex (P19838 1-433 limits assumed): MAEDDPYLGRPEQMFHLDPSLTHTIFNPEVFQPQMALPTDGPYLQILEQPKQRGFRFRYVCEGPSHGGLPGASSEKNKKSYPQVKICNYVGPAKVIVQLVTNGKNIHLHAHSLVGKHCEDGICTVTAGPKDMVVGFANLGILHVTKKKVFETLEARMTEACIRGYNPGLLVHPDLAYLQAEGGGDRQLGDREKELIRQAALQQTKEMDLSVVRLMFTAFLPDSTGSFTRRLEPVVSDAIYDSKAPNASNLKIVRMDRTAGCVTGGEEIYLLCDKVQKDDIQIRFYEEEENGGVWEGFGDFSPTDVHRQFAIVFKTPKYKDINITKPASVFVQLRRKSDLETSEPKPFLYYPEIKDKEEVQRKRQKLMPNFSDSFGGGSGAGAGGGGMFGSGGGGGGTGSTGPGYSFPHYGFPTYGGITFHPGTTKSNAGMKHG
Chain of Nuclear factor NF-kappa-B complex (Q00653 1-454 limits assumed): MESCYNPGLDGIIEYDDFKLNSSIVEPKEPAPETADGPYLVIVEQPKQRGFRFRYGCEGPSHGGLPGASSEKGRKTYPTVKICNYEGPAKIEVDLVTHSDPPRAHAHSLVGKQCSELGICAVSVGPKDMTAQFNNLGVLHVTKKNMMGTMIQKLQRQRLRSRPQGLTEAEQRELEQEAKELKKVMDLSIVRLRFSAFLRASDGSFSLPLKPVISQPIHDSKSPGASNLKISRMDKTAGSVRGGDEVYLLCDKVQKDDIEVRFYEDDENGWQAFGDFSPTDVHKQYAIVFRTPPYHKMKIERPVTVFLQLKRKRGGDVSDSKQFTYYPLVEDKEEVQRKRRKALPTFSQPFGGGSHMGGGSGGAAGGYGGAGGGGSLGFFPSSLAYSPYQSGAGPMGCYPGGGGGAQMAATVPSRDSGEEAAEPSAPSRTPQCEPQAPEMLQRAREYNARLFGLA
Chain of Nuclear factor NF-kappa-B complex (Q04206 whole entry): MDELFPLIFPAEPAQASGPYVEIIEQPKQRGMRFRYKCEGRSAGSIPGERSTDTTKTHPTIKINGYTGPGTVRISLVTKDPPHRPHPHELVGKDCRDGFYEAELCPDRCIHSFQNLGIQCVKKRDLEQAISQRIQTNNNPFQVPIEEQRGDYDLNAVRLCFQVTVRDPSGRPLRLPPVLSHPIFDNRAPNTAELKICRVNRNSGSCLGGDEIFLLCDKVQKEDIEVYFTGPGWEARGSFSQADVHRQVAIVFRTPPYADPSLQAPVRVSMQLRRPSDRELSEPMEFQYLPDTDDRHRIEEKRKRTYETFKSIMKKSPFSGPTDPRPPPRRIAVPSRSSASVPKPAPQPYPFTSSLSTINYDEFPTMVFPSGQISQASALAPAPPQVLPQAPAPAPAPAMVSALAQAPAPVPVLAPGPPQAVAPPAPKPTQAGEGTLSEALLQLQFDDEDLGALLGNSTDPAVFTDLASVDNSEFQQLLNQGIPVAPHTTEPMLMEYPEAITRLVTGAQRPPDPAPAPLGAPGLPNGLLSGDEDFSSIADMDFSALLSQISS

[3] = molecular target: Transcription factor Jun (Mus musculus) (UniProt P05627); assay: Inhibition of AP-1-mediated transcriptional activation in lipopolysaccharide-stimulated mouse RAW 264.7 cells assessed ratio of luciferase activity normalized to Renilla luciferase activity by luciferase reporter gene assay
Chain of Transcription factor Jun (Mus musculus) (P05627 whole entry): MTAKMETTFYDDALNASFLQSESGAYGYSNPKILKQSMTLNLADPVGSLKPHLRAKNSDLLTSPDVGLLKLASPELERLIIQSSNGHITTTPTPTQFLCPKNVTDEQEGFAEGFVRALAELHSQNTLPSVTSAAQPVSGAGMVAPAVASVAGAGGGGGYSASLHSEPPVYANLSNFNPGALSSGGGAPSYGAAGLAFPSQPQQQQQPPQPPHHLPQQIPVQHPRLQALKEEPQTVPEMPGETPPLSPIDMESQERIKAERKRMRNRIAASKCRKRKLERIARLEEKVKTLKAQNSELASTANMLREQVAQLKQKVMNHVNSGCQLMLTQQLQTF

Transcription factor Jun [4] = molecular target: T1, Transcription factor Jun; assay: Inhibition of AP-1 (unknown origin) expressed in TPA-stimulated mouse NIH3T3 cells by luciferase reporter gene assay; type: cell-based
Transcription factor Jun [5] = molecular target: T1, Transcription factor Jun; assay: Inhibition of AP-1-mediated transcriptional activation in human HeLa cells at 1 ug/ml; type: cell-based
Transcription factor Jun [6] = molecular target: T1, Transcription factor Jun; assay: Inhibition of AP-1-mediated transcriptional activation in human HeLa cells at 10 ug/ml; type: cell-based
Transcription factor Jun [7] = molecular target: T1, Transcription factor Jun; assay: Inhibition of AP-1 bZIP domain DNA binding activity (unknown origin) by ELISA
Transcription factor AP1 = Transcription factor AP1 (Homo sapiens, UniProt P01100+P05412); assay: Inhibition of Fos-Jun dimer formation (unknown origin) by EMSA method; type: protein-complex assay
Chain of Transcription factor AP1 (P05412 whole entry): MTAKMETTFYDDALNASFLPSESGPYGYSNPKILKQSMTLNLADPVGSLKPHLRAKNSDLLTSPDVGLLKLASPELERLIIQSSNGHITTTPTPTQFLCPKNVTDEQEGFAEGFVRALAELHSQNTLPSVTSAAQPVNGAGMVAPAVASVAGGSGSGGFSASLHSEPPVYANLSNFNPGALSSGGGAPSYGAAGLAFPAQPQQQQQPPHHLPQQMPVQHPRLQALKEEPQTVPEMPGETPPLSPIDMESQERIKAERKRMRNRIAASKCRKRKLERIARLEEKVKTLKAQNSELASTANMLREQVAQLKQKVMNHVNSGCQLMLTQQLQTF
Chain of Transcription factor AP1 (P01100 whole entry): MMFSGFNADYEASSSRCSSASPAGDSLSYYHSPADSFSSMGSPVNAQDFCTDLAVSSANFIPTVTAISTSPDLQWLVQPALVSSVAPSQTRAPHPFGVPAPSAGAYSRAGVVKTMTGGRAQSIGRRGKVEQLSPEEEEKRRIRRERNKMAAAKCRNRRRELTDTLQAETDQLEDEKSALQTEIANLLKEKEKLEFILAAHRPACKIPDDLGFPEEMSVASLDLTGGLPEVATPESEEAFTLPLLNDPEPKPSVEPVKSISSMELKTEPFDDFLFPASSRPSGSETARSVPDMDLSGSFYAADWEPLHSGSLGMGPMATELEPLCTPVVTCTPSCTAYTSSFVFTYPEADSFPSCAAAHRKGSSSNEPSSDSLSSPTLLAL

Transcription factor Jun [8] = molecular target: T1, Transcription factor Jun; assay: Inhibition of UVB-induced AP-1 activation (unknown origin) by cell-based assay
Transcription factor Jun [9] = molecular target: T1, Transcription factor Jun; assay: Inhibition of AP-1-mediated transcriptional activation in HEK293 cells by luciferase reporter gene assay; type: cell-based
Transcription factor Jun [10] = molecular target: T1, Transcription factor Jun; assay: Inhibition of AP-1 (unknown origin) by FRET assay
Transcription factor Jun [11] = molecular target: Transcription factor Jun (Rattus norvegicus, UniProt P17325); assay: Inhibition of AP-1-mediated collagenase production in IL1alpha-stimulated Lewis rat synovial cells
Chain of Transcription factor Jun (Rattus norvegicus, UniProt P17325) (P17325 whole entry): as the sequence (P05627 whole entry) above, with S48N, A193T counted along it

Transcription factor Jun [12] = molecular target: T1, Transcription factor Jun; assay: Inhibition of AP-1 (unknown origin) binding to AP-1 oligonucleotide by gel shift assay
Gallus gallus = species: Gallus gallus; assay: Antiangiogenic activity in chicken embryo assessed as inhibition of neovascularization at 10 ug; type: functional

T1 sequence (P05412 whole entry): as the sequence (P05412 whole entry) above

SMILES: CCOC(=O)c1cnc(-c2cccs2)nc1NN1C(=O)C=C(C)C1=O
IC50 (Transcription factor Jun [1]): 20 nM
IC50 [2]: 20 nM

SMILES: C[C@@]12CC[C@@H]3[C@@](CC[C@H]4[C@@]3(C)CCC[C@@]4(C)C(=O)O)(COC1=O)C2
Ratio [3]: 1.88

SMILES: CCOC(=O)c1cnc(-c2ccccc2)nc1NN1C(=O)C=C(C)C1=O
IC50 (Transcription factor Jun [1]): 100 nM
IC50 [2]: 100 nM

SMILES: C[C@@]12CC[C@@H]3[C@@](CC[C@H]4[C@@]3(C)CCC[C@@]4(C)C(=O)O)(C/C1=N\O)C2
Ratio [3]: 4.87

SMILES: CCOC(=O)c1cnc(NN2C(=O)C=C(C)C2=O)nc1C(F)(F)F
IC50 (Transcription factor Jun [1]): 2000 nM

SMILES: C[C@@]12CCC[C@@](C)(C(=O)O)[C@H]1CC[C@]13CC(=O)O[C@](C)(C1)[C@H](O)C[C@H]32
Ratio [3]: 2.73

SMILES: CCc1nc(NN2C(=O)C=C(C)C2=O)ncc1-c1coc(C)n1
IC50 (Transcription factor Jun [1]): 830 nM

SMILES: COC(=O)C1=CO[C@@H](O[C@@H]2O[C@H](CO)[C@@H](O)[C@H](O)[C@H]2O)[C@H]2[C@@H]1[C@@H]1O[C@@H]1[C@]2(O)C(=O)O/C=C(\C(=O)O)c1ccc(O)c(OC)c1
IC50 (Transcription factor Jun [8]): 29000 nM

SMILES: O=C(Nc1cc(C(F)(F)F)cc(C(F)(F)F)c1)c1cc(I)ccc1O
inhibition (Transcription factor Jun [5]): 25.4%
inhibition (Transcription factor Jun [6]): 82.4%

SMILES: COC1=C(C)[C@@H]2CC(=O)O[C@@H]3C[C@H]4[C@H](C)[C@@H](O)[C@H](O)C(=O)[C@]4(C)[C@@H](C1=O)[C@@]32C [NOTHOSPONDIN]
EC50 (Transcription factor Jun [10]): 130 nM

SMILES: C[C@@H]1C[C@H]2[C@@H]3CCC4=CC(=O)C=C[C@]4(C)[C@@]3(F)[C@@H](O)C[C@]2(C)[C@@]1(O)C(=O)CO
Ratio [3]: 2.33

SMILES: C[C@@]12CC[C@@H]3[C@@](CC1=O)(C2)[C@@H](O)C[C@H]1[C@@]3(C)[C@@H](O)CC[C@@]1(C)C(=O)O
Ratio [3]: 2.98

SMILES: CC(=O)c1cnc(NN2C(=O)C=C(C)C2=O)nc1C(F)(F)F
IC50 (Transcription factor Jun [1]): 4400 nM

SMILES: O=C(Nc1cc(C(F)(F)F)cc(C(F)(F)F)c1)c1ccc(Cl)nn1
IC50 (Transcription factor Jun [1]): 1700 nM
IC50 [2]: 1700 nM

SMILES: CCOC(=O)c1cnc(N(C)N2C(=O)C=C(C)C2=O)nc1CC
IC50 (Transcription factor Jun [1]): 35 nM

SMILES: O=C(Nc1cc(Cl)cc(Cl)c1)c1cc(Br)ccc1O
inhibition (Transcription factor Jun [5]): 39.3%
inhibition (Transcription factor Jun [6]): 83.8%

SMILES: COc1cc(/C=C/C(=O)/C=C(O)/C=C/c2cc(OC)c(O)c([N+](=O)[O-])c2)cc([N+](=O)[O-])c1O
inhibition (INH) (Gallus gallus): 68%

More lines, now with the values ahead:

Ratio [3]: 2.85
SMILES: CC1=C[C@@]2(CC#N)CC[C@H]3[C@@](C)(CCC[C@@]3(C)C(=O)O)[C@@H]2CC1

IC50 (Transcription factor Jun [1]): 4000 nM
IC50 [2]: 4000 nM
SMILES: O=C(Nc1cc(C(F)(F)F)cc(C(F)(F)F)c1)c1cnc(Cl)cn1

IC50 (Transcription factor Jun [1]): 98 nM
SMILES: CC1=CC(=O)N(Nc2ncc(C(=O)c3ccccc3)c(C(F)(F)F)n2)C1=O

IC50 (Transcription factor Jun [1]): 210 nM
SMILES: CC1=CC(=O)N(Nc2ncc(C(=O)OC(C)(C)C)c(C(F)(F)F)n2)C1=O

IC50 (Transcription factor Jun [4]): 5000 nM
SMILES: CC(C)COc1ccc(C(=O)c2ccc(OCC(C)C)c(CCC(=O)O)c2)cc1

inhibition (Transcription factor Jun [5]): 22.7%
inhibition (Transcription factor Jun [6]): 74.8%
SMILES: O=C(Nc1cc(Cl)cc(Cl)c1)c1cc(Cl)ccc1O

IC50 (Transcription factor Jun [4]): 10000 nM
IC50 (Transcription factor Jun [7]): 10000 nM
SMILES: O=C(O)CCc1cc(C(=O)c2ccc(OC3CCCC3)cc2O)ccc1OCc1ccc2c(O)noc2c1

IC50 (Transcription factor AP1): 5400 nM
SMILES: COc1cccc(/C=C/C(=O)/C=C(O)/C=C/c2cccc(OC)c2)c1

IC50 (Transcription factor Jun [9]): 1200 nM
SMILES: Cc1nc(Nc2ccc(Cl)cc2)sc1-c1nc2ccccc2c(=O)n1-c1ccc(Cl)cc1

IC50 [2]: 50 nM
SMILES: Cc1nc(Cl)ncc1C(=O)Nc1cc(C(F)(F)F)cc(C(F)(F)F)c1

IC50 (Transcription factor AP1): 8980 nM
SMILES: Cc1ccc(/C=C/C(=O)/C=C(O)/C=C/c2ccc(C)cc2)cc1

IC50 (Transcription factor Jun [1]): 760 nM
SMILES: CC1=CC(=O)N(Nc2ncc(-c3coc(C)n3)c(-c3cccs3)n2)C1=O

IC50 (Transcription factor Jun [1]): 10000 nM
SMILES: O=C1Nc2cc(C(F)(F)F)ccc2Nc2nc(Cl)ncc21

IC50 (Transcription factor Jun [11]): 60000 nM
IC50 (Transcription factor Jun [12]): 100000 nM
SMILES: CCCc1c(C(=O)O)c(O)cc2c1C(=O)c1c(O)cccc1C2=O

IC50 (Transcription factor Jun [1]): 10000 nM
SMILES: O=C(c1cnc(Cl)nc1C(F)(F)F)N1COCc2ccc(C(F)(F)F)cc21

IC50 (Transcription factor Jun [1]): 400 nM
IC50 [2]: 400 nM
SMILES: O=C(Nc1cc(C(F)(F)F)cc(C(F)(F)F)c1)c1cnc(Cl)nc1-c1ccccc1

Ratio [3]: 2.38
SMILES: C[C@@]12CC[C@@H]3[C@@](CC[C@H]4[C@@]3(C)CCC[C@@]4(C)C(=O)O)(CC(=O)O1)C2
